Test results as given in patent US5808049A, “Stereospecific 5-fu esters and methods for preparing same” (Director-General of Agency of Industrial Science and …, priority 1994, dated 1998).

Legend:
[1] = in vitro; settings: rat, anr4 cells, pH 7.5
Procedure: (§1) Each of the reaction mixtures was prepared by dissolving 1 mg of the ester in 10 μl of ethanol, and by mixing with it, 90 μl of a 0.1M phosphoric acid buffer (having a pH of 7.5), plus one of the following: 100 μl of a cell suspension, or 20 or 30 μl of whole blood, or 50 μl of tissue homogenate. […] The cells numbers in 100 μl of the cell suspension used in the reaction were as follows: rat liver cancer cells Anr4=7×10^6 ; rat pancreas cancer cells ARIP=8×10^6 ; rat sarcoma cells XC=5×10^6 ; human histiocytic leukemia cells U937=1×10^7 ; human pancreas cancer cells MIA PaCa-2=8×10^6 ; and human intestinum crassum cancer cells Colo 320=1×10^7. Fifty μl of the tissue homogenate corresponded to 20 mg of wet tissue.
(§2) Each of these reaction mixtures was stirred for 12 hours at 30° C. by a magnetic stirrer; then 1.5 μl of 2N HCl was added, to bring the pH to about 2.5, and extraction with 1 ml of ethyl acetate in the presence of a saturated sodium chloride was carried out twice. The ethyl acetate layers of each sample were combined, the volume was adjusted to precisely 2 ml, and it was divided into 1.7 ml and 0.3 ml. The former was concentrated under reduced pressure, and the contained produced carboxylic acid was isolated by thin-layer preparative chromatography. A solution of diazomethane in ether was added to it, to methylate it, and the absolute configuration and the optical purity of the methylated product were determined by high-performance liquid chromatography using a chiral column. The latter 0.3 ml was directly methylated, and then it was concentrated and adjusted to 0.3 ml again, and the methyl ester of the contained produced carboxylic acid was determined quantitatively by gas chromatography, from which the hydrolyzed rate was determined. The column used in the high-performance liquid chromatography was a Chiralcell OJ or OD column (trade name; 4.6×250 mm) manufactured by Daicel; the elution was carried out by using a 10% 2-propanol/hexane mixture; and the flow velocity was 1 or 0.75 ml/min. The column used in the gas chromatography was a capillary column of OV-1 (0.25 mm×25 m), and the analysis temperature was 120° to 180° C.

[2] = in vitro; settings: human, colo 320 cells, pH 7.5
Procedure: as §1, §2

[3] = system: human histiocytic leukemia cells U937; assay: Stereoselective hydrolysis of anticancer agent esters with human histiocytic leukemia cells U937; settings: U937; 12 hours at 30° C., pH 7.5
Procedure: as §1, §2

[4] = in vitro; settings: human, blood, pH 7.5
Procedure: as §1, §2

[5] = Stereoselective hydrolysis of anticancer agent esters with normal rat pancreas homogenate; settings: 12 hours at 30° C., pH 7.5
Procedure: as §1, §2

[6] = Stereoselective hydrolysis of anticancer agent esters with human whole blood; settings: pH 7.5; for enantiomer excess of the carboxylic acid produced by the hydrolysis: human whole blood, 12 hours at 30° C.
Procedure: as §1, §2

[7] = Stereoselective hydrolysis of anticancer agent esters with normal rat liver homogenate; settings: 12 hours at 30° C., pH 7.5
[8] = in vitro; settings: human, mia paca-2 cells, pH 7.5
Procedure: as §1, §2

[9] = in vitro; settings: rat, blood, pH 7.5
Procedure: as §1, §2

[10] = in vitro; settings: human, u937 cells, pH 7.5
Procedure: as §1, §2

[11] = system: rat sarcoma cells XC; assay: Stereoselective hydrolysis of anticancer agent esters with rat sarcoma cells XC; settings: XC; 12 hours at 30° C., pH 7.5
Procedure: as §1, §2

[12] = system: rat pancreas cancer cells ARIP; assay: Stereoselective hydrolysis of anticancer agent esters with rat pancreas cancer cells ARIP; settings: ARIP; 12 hours at 30° C., pH 7.5
Procedure: as §1, §2

[13] = Stereoselective hydrolysis of anticancer agent esters with rat whole blood; settings: pH 7.5; for enantiomer excess of the carboxylic acid produced by the hydrolysis: rat whole blood, 12 hours at 30° C.; for metabolised at 12 h: rat, whole blood
Procedure: as §1, §2

[14] = in vitro; settings: rat, xc cells, pH 7.5
Procedure: as §1, §2

[15] = in vitro; settings: rat, arip cells, pH 7.5
Procedure: as §1, §2

[16] = Stereoselective hydrolysis of anticancer agent esters with normal rat muscle homogenate; settings: 12 hours at 30° C., pH 7.5
[17] = system: human intestinum crassum cancer cells Colo 320; assay: Stereoselective hydrolysis of anticancer agent esters with human intestinum crassum cancer cells Colo 320; settings: Colo320; 12 hours at 30° C., pH 7.5
Procedure: as §1, §2

[18] = system: rat liver cancer cells Anr4; assay: Stereoselective hydrolysis of anticancer agent esters with rat liver cancer cells Anr4; settings: Anr4; 12 hours at 30° C., pH 7.5
Procedure: as §1, §2

[19] = system: human pancreas cancer cells MIA PaCa-2; assay: Stereoselective hydrolysis of anticancer agent esters with human pancreas cancer cells MIA PaCa-2; settings: MIA PaCa-2; 12 hours at 30° C., pH 7.5
Procedure: as §1, §2

[20] = Stereoselective hydrolysis of anticancer agent esters with rat sarcoma cells XC; settings: rat, xc cells, pH 7.5
Procedure: as §1, §2

[21] = Stereoselective hydrolysis of anticancer agent esters with rat pancreas cancer cells ARIP; settings: rat, arip cells, pH 7.5
Procedure: as §1, §2

[22] = Stereoselective hydrolysis of anticancer agent esters with rat liver cancer cells Anr4; settings: rat, anr4 cells, pH 7.5
Procedure: as §1, §2

[23] = system: rat liver cancer cells Anr4; assay: Anticancer effect (suppression of multiplication) on rat liver cancer cells Anr4; type: cell-based; settings: for number of cells, % for the value of the control: 6 hours exposure, then 42 hours in fresh medium; for number of cells, % for the value of the control / multiplication of Anr4 cells suppressed to % of the control: 2880 min; for suppression of multiplication of Anr4 cells, comparison of enantiomers: Ib: at 1 μM to 0.1 μM, Ic: at 10 μM; for multiplication of Anr4 cells suppressed to % of the control: same way as in Example 2 (Example 3)
Procedure: The anticancer effect of levo-rotatory or dextro-rotatory 4-bis(2-chloroethyl)aminophenyl 2-methoxy-2-phenylacetate (Ib) on rat liver cancer cells Anr4 was tested. Anr4 cells were suspended, in an amount of cells number of 1×10^6 per 1 ml, in William's E medium containing 10% of fetal bovine serum, and 0.1 ml of the suspension was distributed to each well of a 24-well multiplate. Further, 1.385 ml of the above medium was added to each well. They were cultured for 4 hours at 37° C. in a CO2 incubator, and then 15 μl of pure ethanol or an ethanol solution containing (R)-(-)-Ib or (S)-(+)-Ib obtained in Synthetic. Example 4, having a concentration of 10 mM, 1 mM, 0.1 mM, 0.01 mM, or 0.001 mM, was added to the medium in each well, and they were mixed well.
After they were cultured for 6 hours in the above incubator, the medium was removed by suction, and 1.5 ml of fresh medium was added. After culturing was continued for 42 hours, the number of cells in each well was counted by a Coulter counter. The results, in terms of % for the value of the control (the well added pure ethanol), were 9%, 12%, 16%, 55%, and 95% for the concentrations of 100 μM, 10 μM, 1 μM, 0.1 μM, and 0.01 μM of (R)-(-)-Ib in the medium, respectively. For the concentrations of 100 μM, 10 μM, 1 μM, 0.1 μM, and 0.01 μM of (S)-(+)-Ib in the medium, the results were 9%, 18%, 30%, 83%, and 95%, respectively.
The anticancer effect of the optically active substances of Ic obtained in Synthetic Example 5 on Anr4 cells was tested in the same way as in Example 2. As a result, at 10 μM, (R)-(+)-Ic suppressed the multiplication of Anr4 cells to 14% of the control, and (S)-(-)-Ic suppressed the multiplication of Anr4 cells to 25% of the control.

Row | Compound | metabolised at 12 h [1] | enantiomer excess of the carboxylic acid produced by the hydrolysis [3] | enantiomer excess of the carboxylic acid produced by the hydrolysis [5] | enantiomer excess of the carboxylic acid produced by the hydrolysis [6] | enantiomer excess of the carboxylic acid produced by the hydrolysis [7] | metabolised at 12 h [9] | enantiomer excess of the carboxylic acid produced by the hydrolysis [11] | enantiomer excess of the carboxylic acid produced by the hydrolysis [12] | enantiomer excess of the carboxylic acid produced by the hydrolysis [13] | metabolised at 12 h [14] | metabolised at 12 h [15] | enantiomer excess of the carboxylic acid produced by the hydrolysis [16] | enantiomer excess of the carboxylic acid produced by the hydrolysis [18] | other results
1 | O=C(Oc1ccc(N(CCCl)CCCl)cc1)C(Cc1ccccc1)NC(=O)C(F)(F)F (racemic) [Ic, (±)-4-bis(2-chloroethyl)aminophenyl 2-trifluoroacetamido-3-phenylpropionate] | 0.6% | > 99 % e.e. | > 99 % e.e. | 23.7 % e.e. | 93.2 % e.e. | 18.2% | 77.9 % e.e. | 83.0 % e.e. | 18.3 % e.e. | 10.6% | 14.6% | 72.4 % e.e. | 94.9 % e.e. | metabolised at 12 h [2]: 2.4%; metabolised at 12 h [4]: 8%; metabolised at 12 h [8]: 7.2%; metabolised at 12 h [10]: 9.6%; enantiomer excess of the carboxylic acid produced by the hydrolysis [17]: 35.9 % e.e.; enantiomer excess of the carboxylic acid produced by the hydrolysis [19]: 2.6 % e.e.
2 | CC(C(=O)OC[C@H]1O[C@@H](n2cc(F)c(=O)[nH]c2=O)[C@H](O)[C@@H]1O)c1ccccc1 (stereo partly drawn) [IIa, 5'-(RS)-(2-phenylpropionyl)-5-fluorouridine] | – | 38.2 % e.e. | 36.9 % e.e. | 12.5 % e.e. | 85.6 % e.e. | – | 82.1 % e.e. | 91.3 % e.e. | 53.7 % e.e. | – | – | 61.7 % e.e. | 81.6 % e.e. | metabolised at 12 h ([6]; human, whole blood): 5.3%; metabolised at 12 h [20]: 16.8%; metabolised at 12 h [21]: 25.2%; metabolised at 12 h [13]: 6.3%; metabolised at 12 h [22]: 26.3%
3 | CO[C@@H](C(=O)Oc1ccc(N(CCCl)CCCl)cc1)c1ccccc1 [(R)-(-)-Ib, 4-bis(2-chloroethyl)aminophenyl 2-methoxy-2-phenylacetate] | – | – | – | – | – | – | – | – | – | – | – | – | – | number of cells, % for the value of the control ([23]; 0.01 μM): 95%; number of cells, % for the value of the control ([23]; 0.1 μM): 55%; number of cells, % for the value of the control ([23]; 1 μM): 16%; number of cells, % for the value of the control ([23]; 10 μM): 12%; number of cells, % for the value of the control ([23]; 100 μM): 9%; suppression of multiplication of Anr4 cells, comparison of enantiomers [23]: suppressed the multiplication of Anr4 cells more strongly than dextro-rotatory (S)-(+)-Ib did
4 | CO[C@H](C(=O)Oc1ccc(N(CCCl)CCCl)cc1)c1ccccc1 [(S)-(+)-Ib, 4-bis(2-chloroethyl)aminophenyl 2-methoxy-2-phenylacetate] | – | – | – | – | – | – | – | – | – | – | – | – | – | number of cells, % for the value of the control ([23]; 0.01 μM): 95%; number of cells, % for the value of the control ([23]; 0.1 μM): 83%; number of cells, % for the value of the control ([23]; 1 μM): 30%; number of cells, % for the value of the control ([23]; 10 μM): 18%; number of cells, % for the value of the control ([23]; 100 μM): 9%
5 | COC(C(=O)Oc1ccc(N(CCCl)CCCl)cc1)c1ccccc1 (racemic) [Ib, (±)-4-bis(2-chloroethyl)aminophenyl 2-methoxy-2-phenylacetate] | 14% | – | 8.4 % e.e. | – | 33.2 % e.e. | 55.2% | 69.9 % e.e. | 26.8 % e.e. | 20.4 % e.e. | 23.9% | 55.2% | 46.0 % e.e. | 91.3 % e.e. | –
6 | COC(C(=O)OC[C@H]1O[C@@H](n2cc(F)c(=O)[nH]c2=O)[C@H](O)[C@@H]1O)c1ccccc1 (stereo partly drawn) [IIb, 5'-(RS)-(2-methoxy-2-phenylacetyl)-5-fluorouridine] | – | – | 42.5 % e.e. | – | 6.0 % e.e. | – | 81.5 % e.e. | 84.1 % e.e. | 55.0 % e.e. | – | – | 18.5 % e.e. | 81.1 % e.e. | metabolised at 12 h [20]: 23%; metabolised at 12 h [21]: 27.7%; metabolised at 12 h [13]: 14.8%; metabolised at 12 h [22]: 23.7%
7 | CC(C(=O)Oc1ccc(N(CCCl)CCCl)cc1)c1ccccc1 (racemic) [Ia, (±)-4-bis(2-chloroethyl)aminophenyl 2-phenylpropionate] | 20.9% | 72.3 % e.e. | 1.0 % e.e. | 9.1 % e.e. | 15.7 % e.e. | 5.8% | 18.6 % e.e. | 42.8 % e.e. | 9.4 % e.e. | 6.3% | 10.2% | 1.8 % e.e. | 68.9 % e.e. | metabolised at 12 h [2]: 3%; metabolised at 12 h [4]: 2.4%; metabolised at 12 h [8]: 6%; metabolised at 12 h [10]: 5.2%; enantiomer excess of the carboxylic acid produced by the hydrolysis [17]: 68.9 % e.e.; enantiomer excess of the carboxylic acid produced by the hydrolysis [19]: 87.1 % e.e.
8 | O=C(Oc1ccc(N(CCCl)CCCl)cc1)[C@@H](Cc1ccccc1)NC(=O)C(F)(F)F [(R)-(+)-Ic, 4-bis(2-chloroethyl)aminophenyl 2-trifluoroacetamido-3-phenylpropionate] | – | – | – | – | – | – | – | – | – | – | – | – | – | multiplication of Anr4 cells suppressed to % of the control ([23]; 10 μM): 14%; suppression of multiplication of Anr4 cells, comparison of enantiomers [23]: stronger cell multiplication-suppressing effect than (S)-(-)-Ic
9 | O=C(Oc1ccc(N(CCCl)CCCl)cc1)[C@H](Cc1ccccc1)NC(=O)C(F)(F)F [(S)-(-)-Ic, 4-bis(2-chloroethyl)aminophenyl 2-trifluoroacetamido-3-phenylpropionate] | – | – | – | – | – | – | – | – | – | – | – | – | – | multiplication of Anr4 cells suppressed to % of the control ([23]; 10 μM): 25%
